# Laboratory results published in US12655116B2, “Substituted isophthalic acid diamides” (Bayer Aktiengesellschaft, priority 2020, dated 2026).
# Tests used:
# VIOTR [1] = assay: Pre-emergence herbicidal action against VIOTR; assay type: in vivo, Viola tricolor
# Outline: (§1)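 Visual rating at 3 weeks vs untreated pots; 0–100% scale, 100% = plants died. Treatment: aqueous WP/EC spray onto covering soil, 600–800 l/ha, 0.2% wetter, seeds in sandy loam.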
# VERPE [2] = assay: Pre-emergence herbicidal action against VERPE; assay type: in vivo, Veronica persica; details: dosage 80 g/ha
# Outline: as §1
# AMARE [3] = assay: Pre-emergence herbicidal action against AMARE; assay type: in vivo, Amaranthus retroflexus
# Outline: as §1
# DIGSA [4] = assay: Post-emergence herbicidal action against DIGSA; assay type: in vivo, Digitaria sanguinalis
# Outline: (§2)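 Greenhouse pot plants in sandy loam were sprayed at the one-leaf stage, 2 to 3 weeks after sowing, with WP or EC formulations as aqueous suspension or emulsion (600 to 800 l/ha water, 0.2% wetting agent). About 3 weeks later, damage was scored visually against untreated controls as % action (100% = dead, 0% = like control).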
# ABUTH [5] = assay: Post-emergence herbicidal action against ABUTH; assay type: in vivo, Abutilon theophrasti; details: visual assessment about 3 weeks after treatment vs untreated controls
# Outline: as §2
# POLCO [6] = assay: Post-emergence herbicidal action against POLCO; assay type: in vivo, Polygonum convolvulus; details: dosage 20 g/ha
# Experimental: Seeds of monocotyledonous and dicotyledonous weed and crop plants are laid out in sandy loam soil in wood-fiber pots, covered with soil and cultivated in a greenhouse under good growth conditions. 2 to 3 weeks after sowing, the test plants are treated at the one-leaf stage. The compounds of the invention, formulated in the form of wettable powders (WP) or as emulsion concentrates (EC), are then sprayed onto the green parts of the plants in the form of an aqueous suspension or emulsion at a water application rate equivalent to 600 to 800 l/ha, with addition of 0.2% wetting agent. After the test plants have been left to stand in the greenhouse under optimal growth conditions for about 3 weeks, the action of the preparations is assessed visually in comparison to untreated controls (herbicidal action in percent (%): 100% activity=the plants have died, 0% activity=like control plants). […] The tables below illustrate, in an illustrative manner, the post-emergence herbicidal action of the compounds of the invention, the herbicidal activity being stated in percent.
# PHBPU [7] = assay: Post-emergence herbicidal action against PHBPU; assay type: in vivo, Pharbitis purpurea; details: dosage 20 g/ha
# Outline: as §2
# SETVI [8] = assay: Post-emergence herbicidal action against SETVI; assay type: in vivo, Setaria viridis
# Outline: as §2
# VIOTR [9] = assay: Post-emergence herbicidal action against VIOTR; assay type: in vivo, Viola tricolor
# Outline: as §2
# PHBPU [10] = assay: Pre-emergence herbicidal action against PHBPU; assay type: in vivo, Pharbitis purpurea; details: dosage 80 g/ha
# Outline: as §1
# MATIN [11] = assay: Pre-emergence herbicidal action against MATIN; assay type: in vivo, Matricaria inodora
# Outline: as §1
# ECHCG [12] = assay: Pre-emergence herbicidal action against ECHCG; assay type: in vivo, Echinochloa crus-galli
# Outline: as §1
# ECHCG [13] = assay: Post-emergence herbicidal action against ECHCG; assay type: in vivo, Echinochloa crus-galli
# Outline: as §2
# ABUTH [14] = assay: Pre-emergence herbicidal action against ABUTH; assay type: in vivo, Abutilon theophrasti
# Outline: as §1
# MATIN [15] = assay: Post-emergence herbicidal action against MATIN; assay type: in vivo, Matricaria inodora
# Outline: as §2
# VERPE [16] = assay: Post-emergence herbicidal action against VERPE; assay type: in vivo, Veronica persica
# Outline: as §2
# SETVI [17] = assay: Pre-emergence herbicidal action against SETVI; assay type: in vivo, Setaria viridis
# Outline: as §1
# DIGSA [18] = assay: Pre-emergence herbicidal action against DIGSA; assay type: in vivo, Digitaria sanguinalis
# Outline: as §1
# AMARE [19] = assay: Post-emergence herbicidal action against AMARE; assay type: in vivo, Amaranthus retroflexus; details: 20 g/ha, visual assessment about 3 weeks after treatment, 100% = plants have died, 0% = like control plants
# Outline: as §2
# POLCO [20] = assay: Pre-emergence herbicidal action against POLCO; assay type: in vivo, Polygonum convolvulus; details: Fallopia convolvulus, 504 h, dosage 80 g/ha
# Outline: as §1
# ALOMY = assay: Pre-emergence herbicidal action against ALOMY; assay type: in vivo, Alopecurus myosuroides; details: Alopecurus myosuroides, 504 h; 80 g/ha, pre-emergence, scored visually after 3 weeks vs untreated controls (100% = plants have died, 0% = like control plants)
# Outline: as §1
# [21] = 80 g/ha, scored visually after 3 weeks vs untreated controls (100% = plants have died, 0% = like control plants)
# [22] = Setaria viridis, 504 h, dosage 20 g/ha
# [23] = Tripleurospermum inodorum, 504 h, dosage 20 g/ha
smiles,measurement,setting,value
CCNC(=O)c1c(C(F)F)ccc(C(=O)Nc2nnnn2CC)c1C1CC1 [Example 2-305],Pre-emergence action against VIOTR in %,VIOTR [1]; dosage 20 g/ha,90%
same,Pre-emergence action against VIOTR in %,VIOTR [1]; dosage 80 g/ha,100%
same,Pre-emergence action against VERPE in %,VERPE [2],100%
same,Pre-emergence action against AMARE in %,"AMARE [3]; 20 g/ha, scored visually after 3 weeks vs untreated controls, 100% = plants have died, 0% = like control plants",100%
same,Pre-emergence action against AMARE in %,AMARE [3]; [21],100%
same,Post-emergence action against DIGSA in %,DIGSA [4]; 5 g/ha,80%
same,Post-emergence action against DIGSA,DIGSA [4]; 20 g/ha,90%
same,Post-emergence action against ABUTH in %,ABUTH [5]; dosage 5 g/ha,80%
same,Post-emergence action against ABUTH in %,ABUTH [5]; dosage 20 g/ha,90%
same,Post-emergence action against POLCO in %,POLCO [6],100%
same,Post-emergence action against PHBPU in %,PHBPU [7],90%
same,Post-emergence action against SETVI in %,SETVI [8]; dosage 5 g/ha,90%
same,Post-emergence action against SETVI in %,SETVI [8]; dosage 20 g/ha,90%
same,Post-emergence action against VIOTR in %,VIOTR [9]; 5 g/ha,80%
same,Post-emergence action against VIOTR in %,VIOTR [9]; 20 g/ha,90%
same,Pre-emergence action against PHBPU in %,PHBPU [10],90%
same,Pre-emergence action against MATIN in %,MATIN [11]; dosage 20 g/ha,100%
same,Pre-emergence action against MATIN in %,MATIN [11]; dosage 80 g/ha,100%
same,Pre-emergence action against ECHCG in %,ECHCG [12]; 20 g/ha,80%
same,Pre-emergence action against ECHCG in %,ECHCG [12]; 80 g/ha,100%
same,Post-emergence action against ECHCG in %,ECHCG [13]; dosage 5 g/ha,90%
same,Post-emergence action against ECHCG in %,ECHCG [13]; dosage 20 g/ha,90%
same,Pre-emergence action against ABUTH (herbicidal activity),ABUTH [14]; [21],100%
same,Pre-emergence action against ABUTH (herbicidal activity in percent),"ABUTH [14]; dosage 20 g/ha, scored visually after 3 weeks vs untreated controls, 100% = plants have died, 0% = like control plants",100%
same,Post-emergence action against MATIN in %,MATIN [15]; dosage 5 g/ha,80%
same,Post-emergence action against MATIN in %,MATIN [15]; dosage 20 g/ha,90%
same,Post-emergence action against VERPE in %,VERPE [16]; 20 g/ha,90%
same,Pre-emergence action against SETVI in %,SETVI [17]; dosage 80 g/ha,80%
same,Pre-emergence action against DIGSA in %,DIGSA [18]; dosage 20 g/ha,100%
same,Pre-emergence action against DIGSA in %,DIGSA [18]; dosage 80 g/ha,100%
same,Post-emergence action at 20 g/ha against AMARE in %,AMARE [19],100%
COc1c(C(=O)Nc2nnnn2C)ccc(C(F)F)c1C(=O)NC1CC1 [Example 1-74],pest or weed control at 20 g/ha,"VIOTR [1]; Viola tricolor, 504 h, dosage 20 g/ha",100%
same,pest or weed control at 80 g/ha,"VIOTR [1]; Viola tricolor, 504 h, dosage 80 g/ha",100%
same,pest or weed control at 80 g/ha,"VERPE [2]; Veronica persica, 504 h",100%
same,pest or weed control at 20 g/ha,"AMARE [3]; Amaranthus retroflexus, 504 h, 20 g/ha, scored visually after 3 weeks vs untreated controls, 100% = plants have died, 0% = like control plants",100%
same,pest or weed control at 80 g/ha,"AMARE [3]; Amaranthus retroflexus, 504 h, 80 g/ha, scored visually after 3 weeks vs untreated controls, 100% = plants have died, 0% = like control plants",100%
same,pest or weed control at 5 g/ha,"ABUTH [5]; Abutilon theophrasti, 504 h, dosage 5 g/ha",80%
same,pest or weed control at 20 g/ha,"ABUTH [5]; Abutilon theophrasti, 504 h, dosage 20 g/ha",80%
same,pest or weed control at 20 g/ha,"POLCO [6]; Fallopia convolvulus, 504 h",80%
same,pest or weed control at 20 g/ha,"PHBPU [7]; Ipomoea purpurea, 504 h",90%
same,pest or weed control at 20 g/ha,SETVI [8]; [22],100%
same,pest or weed control at 80 g/ha,POLCO [20],80%
same,pest or weed control at 5 g/ha,"VIOTR [9]; Viola tricolor, 504 h, 5 g/ha",80%
same,pest or weed control at 20 g/ha,"VIOTR [9]; Viola tricolor, 504 h, 20 g/ha",90%
same,pest or weed control at 80 g/ha,"PHBPU [10]; Ipomoea purpurea, 504 h",100%
same,pest or weed control at 20 g/ha,MATIN [11]; [23],100%
same,pest or weed control at 80 g/ha,"MATIN [11]; Tripleurospermum inodorum, 504 h, dosage 80 g/ha",100%
same,pest or weed control at 80 g/ha,"ECHCG [12]; Echinochloa crus-galli, 504 h, 80 g/ha",100%
same,pest or weed control at 5 g/ha,"ECHCG [13]; Echinochloa crus-galli, 504 h, dosage 5 g/ha",80%
same,pest or weed control at 20 g/ha,"ECHCG [13]; Echinochloa crus-galli, 504 h, dosage 20 g/ha",80%
same,pest or weed control at 80 g/ha,"ABUTH [14]; Abutilon theophrasti, 504 h, 80 g/ha, scored visually after 3 weeks vs untreated controls (100% = plants have died, 0% = like control plants)",100%
same,pest or weed control at 20 g/ha,"ABUTH [14]; Abutilon theophrasti, 504 h, dosage 20 g/ha, scored visually after 3 weeks vs untreated controls, 100% = plants have died, 0% = like control plants, read-out: Pre-emergence action against ABUTH (herbicidal activity in percent)",100%
same,pest or weed control at 5 g/ha,"MATIN [15]; Tripleurospermum inodorum, 504 h, dosage 5 g/ha",80%
same,pest or weed control at 20 g/ha,MATIN [15]; [23],90%
same,pest or weed control at 5 g/ha,"VERPE [16]; Veronica persica, 504 h, 5 g/ha",80%
same,pest or weed control at 20 g/ha,"VERPE [16]; Veronica persica, 504 h, 20 g/ha",90%
same,pest or weed control at 20 g/ha,SETVI [17]; [22],100%
same,pest or weed control at 80 g/ha,"SETVI [17]; Setaria viridis, 504 h, dosage 80 g/ha",100%
same,pest or weed control at 20 g/ha,"DIGSA [18]; Digitaria sanguinalis, 504 h, dosage 20 g/ha",100%
same,pest or weed control at 80 g/ha,"DIGSA [18]; Digitaria sanguinalis, 504 h, dosage 80 g/ha",100%
same,pest or weed control at 80 g/ha,ALOMY,90%
